Key:
[1] = Terminal half life in Sprague-Dawley rat at 2.5 mg/kg, iv up to 6 hrs; format: ADME, organism-based; design: dose 2.5 mg/kg, route intravenous; details: in vivo, read-out: beta t1/2 (converted)
[2] = Clearance in Sprague-Dawley rat at 2.5 mg/kg, iv up to 6 hrs; format: ADME, organism-based; design: dose 2.5 mg/kg, route intravenous; details: in vivo
[3] = Volume of distribution at steady state in Sprague-Dawley rat at 2.5 mg/kg, iv up to 6 hrs; format: ADME, organism-based; design: dose 2.5 mg/kg, route intravenous; details: in vivo, read-out: Vdss
[4] = Oral bioavailability in Sprague-Dawley rat at 5 mg/kg up to 6 hrs; format: ADME, organism-based; details: in vivo
HCT-15 [5] = assay: Antitumor activity against human HCT15 cells xenografted in mouse at 5 mg/kg, po administered once daily for 12 days relative to control; format: functional
HCT-15 [6] = assay: Antitumor activity against human HCT15 cells xenografted in mouse at 10 mg/kg, po administered once daily for 12 days relative to control; format: functional
[7] = Antitumor activity against human AZ-521 cells xenografted in mouse at 10 mg/kg, po administered once daily for 12 days relative to control; format: functional
[8] = Antitumor activity against human TSU-Pr1 cells xenografted in mouse at 20 mg/kg, po administered once daily for 12 days relative to control; format: functional
Mus musculus [9] = assay: Toxicity in mouse xenografted with human TSU-Pr1 cells at 5 to 20 mg/kg, po administered once daily for 12 days; format: organism-based; design: dose 5-20 mg/kg, route oral; details: in vivo, 288 h
Mus musculus [10] = assay: Toxicity in mouse xenografted with human H460 cells at 5 to 20 mg/kg, po administered once daily for 12 days; format: organism-based; design: dose 5-20 mg/kg, route oral; details: in vivo, 288 h
Histone deacetylase 1 = Histone deacetylase 1 (Homo sapiens, UniProt Q13547); assay: Inhibition of human recombinant HDAC1
Histone deacetylase 3 = Histone deacetylase 3 (Homo sapiens, UniProt O15379); assay: Inhibition of HDAC3
Histone deacetylase 8 = target: T1, Histone deacetylase 8 (Homo sapiens, UniProt Q9BY41); assay: Inhibition of HDAC8
T1 sequence (Q9BY41 whole entry): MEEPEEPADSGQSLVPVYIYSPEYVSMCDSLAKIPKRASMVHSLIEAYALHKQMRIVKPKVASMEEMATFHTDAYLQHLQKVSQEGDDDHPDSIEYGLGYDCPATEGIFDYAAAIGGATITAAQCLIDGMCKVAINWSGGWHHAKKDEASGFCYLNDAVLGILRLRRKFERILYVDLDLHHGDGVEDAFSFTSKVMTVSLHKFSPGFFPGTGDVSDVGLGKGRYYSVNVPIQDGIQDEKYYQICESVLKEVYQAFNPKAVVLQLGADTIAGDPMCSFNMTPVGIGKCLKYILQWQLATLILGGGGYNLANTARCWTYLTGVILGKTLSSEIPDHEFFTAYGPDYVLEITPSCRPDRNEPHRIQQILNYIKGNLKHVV

Histone deacetylase 2 = Histone deacetylase 2 (Homo sapiens, UniProt Q92769)
HCT-116 = assay: cells; details: Homo sapiens
Description: Antiproliferative activity against human HCT116 cells by MTT assay

Histone deacetylase 2, sequence (Q92769 whole entry): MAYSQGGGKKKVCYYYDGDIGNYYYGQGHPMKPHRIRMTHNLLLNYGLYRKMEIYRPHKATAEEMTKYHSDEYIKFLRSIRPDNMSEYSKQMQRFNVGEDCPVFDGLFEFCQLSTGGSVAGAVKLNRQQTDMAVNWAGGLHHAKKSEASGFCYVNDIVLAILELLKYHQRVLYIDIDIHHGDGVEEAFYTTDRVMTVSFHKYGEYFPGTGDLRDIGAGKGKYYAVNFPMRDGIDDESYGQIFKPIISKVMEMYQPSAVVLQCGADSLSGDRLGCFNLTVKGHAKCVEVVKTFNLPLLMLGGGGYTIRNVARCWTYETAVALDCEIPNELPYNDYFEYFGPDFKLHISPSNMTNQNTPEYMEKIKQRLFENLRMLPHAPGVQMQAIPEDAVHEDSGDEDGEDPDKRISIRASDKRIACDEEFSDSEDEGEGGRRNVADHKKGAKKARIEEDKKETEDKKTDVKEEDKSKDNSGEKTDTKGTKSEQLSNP
Histone deacetylase 3, sequence (O15379 whole entry): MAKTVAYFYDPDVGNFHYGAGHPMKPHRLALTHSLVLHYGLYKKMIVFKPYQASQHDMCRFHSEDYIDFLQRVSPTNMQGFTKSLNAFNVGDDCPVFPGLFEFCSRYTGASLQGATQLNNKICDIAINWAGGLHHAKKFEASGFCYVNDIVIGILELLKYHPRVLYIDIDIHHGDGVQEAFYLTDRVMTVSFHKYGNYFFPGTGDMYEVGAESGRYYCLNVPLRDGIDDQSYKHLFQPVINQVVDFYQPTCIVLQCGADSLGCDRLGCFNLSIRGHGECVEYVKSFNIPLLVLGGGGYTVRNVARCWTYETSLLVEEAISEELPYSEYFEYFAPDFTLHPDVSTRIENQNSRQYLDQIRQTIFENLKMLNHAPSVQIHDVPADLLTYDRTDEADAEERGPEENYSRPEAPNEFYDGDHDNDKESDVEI
Histone deacetylase 1, sequence (Q13547 whole entry): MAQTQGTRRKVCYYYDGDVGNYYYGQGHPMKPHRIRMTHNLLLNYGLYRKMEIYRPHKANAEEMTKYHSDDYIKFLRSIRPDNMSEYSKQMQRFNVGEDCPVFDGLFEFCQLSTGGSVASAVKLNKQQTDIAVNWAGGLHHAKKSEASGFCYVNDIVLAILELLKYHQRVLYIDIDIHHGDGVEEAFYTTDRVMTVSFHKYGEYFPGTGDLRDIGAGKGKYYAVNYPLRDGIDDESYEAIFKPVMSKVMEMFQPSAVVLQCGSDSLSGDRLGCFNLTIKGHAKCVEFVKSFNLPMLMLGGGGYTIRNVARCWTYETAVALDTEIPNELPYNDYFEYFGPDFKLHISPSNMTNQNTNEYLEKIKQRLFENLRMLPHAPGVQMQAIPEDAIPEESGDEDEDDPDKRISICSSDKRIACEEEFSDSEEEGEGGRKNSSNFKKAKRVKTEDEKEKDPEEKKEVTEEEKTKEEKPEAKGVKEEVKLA

Structure (SMILES): Nc1ccccc1NC(=O)c1ccc(CNc2nccc(-c3ccn[nH]3)n2)cc1
- half-life [1]: 1.2 h
- clearance [2]: 9.17 mL/min/kg
- Vd [3]: 0.13 L/kg
- bioavailability [4]: 16%
- T/C (HCT-15 [5]): 79%
- T/C (HCT-15 [6]): 63%
- T/C [7]: 53%
- T/C [8]: 48%
- Activity (Mus musculus [9]): Non-toxic
- Activity (Mus musculus [10]): Non-toxic
- IC50 (Histone deacetylase 1): 140 nM
- IC50 (Histone deacetylase 3): 320 nM
- IC50 (Histone deacetylase 8): > 10000 nM
- IC50 (Histone deacetylase 2): 140 nM
- IC50 (HCT-116): 300 nM
